# Experimental data from PMC5926424 (Japanese Journal of Cancer Research : Gann, 2000).
# Like-named read-outs stand apart in the source and are kept apart here.
# Legend:
# [1] = test system: albumin; details: cited from earlier work
# [2] = test system: LDL; details: cited from earlier work
# [3] = test system: HDL; details: cited from earlier work
# [4] = test system: T.Tn cells; assay type: cell-based; details: for ATX-S10(Na) uptake: 3 h
# [5] = T.Tn cells, 50 μg/ml ATX-S10(Na), 10% FCS, 37C, Fig. 4
compound,measurement,setting,value
"C=Cc1c(C)c2cc3nc(c(CC(=O)N[C@@H](CC(=O)O)C(=O)O)c4[nH]c(cc5nc(cc1[nH]2)C(C)=C5CC)c(C)c4C(=O)O)[C@@H](CCC(=O)O)[C@@H]3C [NPe6, N-aspartyl chlorin-e6]",Fraction bound to albumin,[1],80%
same,Fraction bound to LDL,[2],1%
same,Fraction bound to HDL,[3],19%
CCCN(CCC)S(=O)(=O)c1ccc(C(=O)O)cc1 [Probenecid],ATX-S10(Na) uptake,[4]; 30 µM,112.3 % of control
same,ATX-S10(Na) uptake,[4]; 100 µM,105.5 % of control
same,ATX-S10(Na) uptake,[4]; 300 µM,113.1 % of control
same,ATX-S10(Na) uptake,[4]; 1000 µM,115.7 % of control
CCN(CC)CCCC(C)Nc1ccnc2cc(Cl)ccc12 (stereo not shown) [chloroquine],Effect of endocytosis inhibitor on cellular uptake of ATX-S10(Na),[4],partially but significantly inhibited
CC[C@@]1([C@@H]2O[C@@H]([C@H]3O[C@@](O)(CO)[C@H](C)C[C@@H]3C)C[C@@H]2C)CC[C@H]([C@]2(C)CC[C@]3(C[C@H](O)[C@@H](C)[C@@H]([C@@H](C)[C@@H](OC)[C@H](C)C(=O)O)O3)O2)O1 [monensin],Effect of endocytosis inhibitor on cellular uptake of ATX-S10(Na),[4]; [5],partially but significantly inhibited
O=CC(=O)c1ccccc1 [phenylglyoxal],Effect of endocytosis inhibitor on cellular uptake of ATX-S10(Na),[4]; [5],partially but significantly inhibited
